Common to all, as to assay type: biochemical
Assay [1] deals with T1, secPHEX (Homo sapiens, UniProt P78562).
T1 construct: pure soluble form of PHEX (secPHEX); made in house
T1 sequence (P78562 46-749 limits assumed): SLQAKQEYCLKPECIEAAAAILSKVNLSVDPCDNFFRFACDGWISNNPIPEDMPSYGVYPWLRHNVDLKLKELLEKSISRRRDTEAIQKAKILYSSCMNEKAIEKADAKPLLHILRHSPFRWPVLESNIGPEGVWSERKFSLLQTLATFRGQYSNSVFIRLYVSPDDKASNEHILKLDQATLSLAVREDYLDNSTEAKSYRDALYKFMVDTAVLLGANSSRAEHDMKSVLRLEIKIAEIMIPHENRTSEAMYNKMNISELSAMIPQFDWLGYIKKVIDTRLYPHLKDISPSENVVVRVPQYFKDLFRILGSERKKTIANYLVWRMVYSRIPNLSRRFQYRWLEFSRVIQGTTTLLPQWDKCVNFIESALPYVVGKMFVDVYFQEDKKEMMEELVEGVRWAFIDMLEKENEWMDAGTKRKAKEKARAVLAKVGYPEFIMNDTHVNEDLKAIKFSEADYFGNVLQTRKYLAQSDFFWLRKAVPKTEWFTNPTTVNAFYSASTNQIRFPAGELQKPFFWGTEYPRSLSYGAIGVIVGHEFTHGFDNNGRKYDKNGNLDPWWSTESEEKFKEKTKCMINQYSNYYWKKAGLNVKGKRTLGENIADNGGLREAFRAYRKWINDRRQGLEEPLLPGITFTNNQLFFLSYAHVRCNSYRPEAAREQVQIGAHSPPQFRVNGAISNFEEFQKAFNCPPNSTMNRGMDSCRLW
The experiment in a line: IC50 determination of PHEX inhibitor, fluorigenic substrate assay. The method, then:
secPHEX enzymatic activity was determined using a fluorigenic substrate where increase of fluorescence was proportional to substrate conversion to products. […] Of these, S3 was the most preferred substrate. S3 was synthesized as described above.
The reaction was carried out in a total volume of 200 μl constituted of buffer (50 mM Mes(NaOH) pH 6.5, 150 mM NaCl) containing various concentrations of the tested PHEX inhibitor (3×10^−5 to 1×10^−11 M) and 100 ng of purified secPHEX. The enzymatic reaction was initiated with the addition of the fluorigenic substrate at a final concentration of 10 μM. The fluorescent reaction product was excited at 320 nm with fluoresce emission read at 420 nm every four minutes over a one-hour period using 96-well plate reader (Perkin-Elmer, HTS-7000™). The initial reaction rate was calculated from the acquired fluorescence-time data as a slope using Microsoft Excell™. Further examples can be found in the co-pending PCT application number PCT/CA03/01893.
IC50 was determined with a plot of the initial rates computed above as a function of inhibitor concentration using the one site competition equation of GraphPad Prism™ version 3.03 (GraphPad™ Software Inc.).

The target of assay [2] is T1, secPHEX. The experiment in a line: Determination of secPHEX activity and concentration in serum with fluorigenic substrate. As to conditions: activity determination in serum. The procedure:
FIG. 6 graphically illustrates the secPHEX enzymatic activity on a fluorigenic substrate of the present invention in rat serum. The observed fluorescence increase was proportional to the reaction product formation. The reaction was carried out in a total volume of 200 μl constituted of buffer: 50 mM Hepes (NaOH) pH 7.4, 150 mM NaCl, 5*10−6 M captopril (ACE inhibitor), containing 10 μl of rat serum in which purified sPHEX was spiked. The enzymatic reaction was initiated by the addition of the fluorigenic substrate (Abz-GFSDYK-Dnp) (SEQ ID NO:3) at a final concentration of 20 μM. The fluorescent reaction product was excited at 320 nm and fluorescence recorded at 420 nm every four minutes over a one-hour period in a 96-well plate reader (Perkin-Elmer, HTS-7000). The initial enzymatic speed rate of the reaction was calculated for each condition. The reaction was carried out in presence of 5 mM EDTA to assess whether the assay is specific to metallopeptidase. Measurements were done in duplicates.
secPHEX enzymatic activity was determined using a fluorigenic substrate where increase of fluorescence was proportional to substrate conversion to products. […] Of these, S3 was the most preferred substrate. […]
The reaction was carried out in a total volume of 200 μl constituted of buffer (50 mM Mes(NaOH) pH 6.5, 150 mM NaCl, 5×10^−6 M captopril (ACE inhibitor)) and serum (preferably between 2 to 50 μl). […] The fluorescent reaction product is excited at 320 nm with fluoresce emission read at 420 nm every four minutes over a one-hour period using 96-well plate reader (Perikin-Elmer, HTS-7000™). The initial reaction rate was calculated from the acquired fluorescence-time data as a slope using Microsoft Excell™. PHEX Enzymatic activity (Vi) was calculated by subtracting to the initial rate of fluorescence (Vitot) with the same measured in presence of EDTA 5 mM (ViEDTA). […]
The actual secPHEX concentration was determined from a calibration curve (Vi Vs secPHEX concentration) obtained by serial dilution of secPHEX in serum or other biological media as required.

Assay [3] concerns the target T1, secPHEX. Put plainly: Kinetic parameters for hydrolysis of internally quenched fluorogenic peptides by secPHEX. As to conditions: for hydrolysis by secPHEX (result in words): 37° C., 10 mM Bis-Tris buffer pH 5.5, 150 mM NaCl. The procedure: The human recombinant secPHEX was obtained following the procedure previously described (17, WO 00/50580). Purified secPHEX concentration was determined using the Bradford method (DC protein assay kit; Bio-Rad, Mississauga, ON, Canada). Membrane-bound recombinant human PHEX was expressed in LLC-PK1 cells (17, (WO 00/50580)) and membranes were prepared essentially as described by Guo et al. (34). Briefly, transfected cells resuspended in lysis buffer (150 mM NaCl, 20 mM Tris.HCl, pH 7.6) were disrupted by sonication. Cell debris were removed by centrifugation at 300 g for 15 min at 4 °C. Membranes were collected by centrifugation at 30,000 g for 50 min and solubilized for 2h with 1% n-dodecyl-β-D-maltoside in lysis buffer. Insoluble material was pelleted by centrifugation at 10,000 g for 15 min and protein concentrations of the supernatant determined using the Bradford method described above. PHEX amounts were evaluated by immunoblotting as described previously (17). NEP expression and purification were performed as described previously (36).
The hydrolysis of the IQFPs, at 37° C., in 10 mM Bit-Tris buffer pH 5.5 (0.35 to 1.0 ml final volume) containing 150 mM NaCl, was continuously followed measuring the fluorescence at γem=420 nm and γex=320 nm in a Hitachi F-2000™ spectrofluorometer. The cuvefte containing the buffer and the substrate was placed in a thermostatically controlled cell compartment for 5 min before the addition of the enzyme and the increase in fluorescence with time was continuously recorded for 5-10 min. The enzyme concentration for initial rate determination was chosen at a level intended to hydrolyze less than 5% of the substrate present. […] The kinetic parameters Km and kcat were calculated by the non-linear regression data analysis Grafit program (42). The kcat/Km values were calculated as the ratio of these two determined parameters. The apparent second order rate constant kcat/Km (*kIt/Km) was determined under pseudo first-order conditions, where [S]<<Km. […]

Square brackets hold non-standard residues; d marks the D form. Primed or numbered codes have the meaning given here. Ends that are not written are not given here. Peptide text beside a SMILES is read from it. * marks the point of attachment. EDDnp = O=[N+]([O-])c1ccc(NCCN*)c([N+](=O)[O-])c1; Dnp = O=[N+]([O-])c1ccc(*)c([N+](=O)[O-])c1; Dnp′ = 2,4-dinitrophenyl; 2Abz = Nc1ccccc1C(=O)O

For `CC(C)C[C@H](NC(=O)[C@H](Cc1c[nH]cn1)NC(=O)[C@H](CC(=O)O)NC(=O)c1ccccc1N)C(=O)N[C@@H](CO)C(=O)N[C@@H](CC(=O)O)C(=O)N[C@H](C(=O)N[C@@H](CO)C(=O)N[C@H](C(=O)N[C@@H](CCC(N)=O)C(=O)NCCNc1ccc([N+](=O)[O-])cc1[N+](=O)[O-])[C@@H](C)O)[C@@H](C)O` [I-Abz-D125-HLS↓DTSTQ-EDDnp, Abz-DHLSDTSTQ-edDnp] (H-[2Abz]DHLSDTSTQ-EDDnp), the “suitability as secPHEX substrate” value in assay [1] and in assay [2] was “good secPHEX substrate” in each case.

In the case of `NC(=O)[C@H](CCCCNc1ccc([N+](=O)[O-])cc1[N+](=O)[O-])NC(=O)[C@H](Cc1ccc(O)cc1)NC(=O)[C@H](CCC(=O)O)NC(=O)[C@H](CO)NC(=O)[C@H](Cc1ccccc1)NC(=O)CNC(=O)c1ccccc1N` [V-Abz-GFSEYK(Dnp)-NH2, Abz-GFSEYK(Dnp)-NH2] (H-[2Abz]GFSEYK(Dnp)-NH2), the “hydrolysis by secPHEX (result in words)” value in assay [3] is “Resistant”; in assay [3] (listed as Abz-GFSEYK(Dnp)-NH2), “resistant to hydrolysis”.

In the case of “Abz-GFRDWK-Dnp ([2Abz]GFRDWK-{Dnp′}) [S1]”, the “suitability as secPHEX substrate” value in assay [1] and in assay [2] was “good secPHEX substrate” in each case.

On to `NC(=O)[C@H](CCCCNc1ccc([N+](=O)[O-])cc1[N+](=O)[O-])NC(=O)[C@H](Cc1ccc(O)cc1)NC(=O)[C@H](CC(=O)O)NC(=O)[C@H](CO)NC(=O)[C@H](Cc1ccccc1)NC(=O)CNC(=O)c1ccccc1N` [II-Abz-GFS↓DYK(Dnp)-NH2, Abz-GFSDYK(Dnp)-NH2] (H-[2Abz]GFSDYK(Dnp)-NH2), for which the “decrease in catalytic efficiency compared with Abz-GFSDYK(Dnp)-OH” value in assay [3] (COOH-terminus amidated analogue) is on record as 6 fold.

The values are drawn from patent US20060292657A1, “Phex substrates and methods using same” (priority 2003, published 2006).
